{"source": "patent US10214519B2", "about": "“Phosphatidylinositol 3-kinase inhibitors” (Gilead Sciences, Inc., priority 2016, dated 2019)", "target": "PI3Kβ (Homo sapiens (Human), UniProt P42338)", "sequence (P42338 whole entry, canonical isoform)": "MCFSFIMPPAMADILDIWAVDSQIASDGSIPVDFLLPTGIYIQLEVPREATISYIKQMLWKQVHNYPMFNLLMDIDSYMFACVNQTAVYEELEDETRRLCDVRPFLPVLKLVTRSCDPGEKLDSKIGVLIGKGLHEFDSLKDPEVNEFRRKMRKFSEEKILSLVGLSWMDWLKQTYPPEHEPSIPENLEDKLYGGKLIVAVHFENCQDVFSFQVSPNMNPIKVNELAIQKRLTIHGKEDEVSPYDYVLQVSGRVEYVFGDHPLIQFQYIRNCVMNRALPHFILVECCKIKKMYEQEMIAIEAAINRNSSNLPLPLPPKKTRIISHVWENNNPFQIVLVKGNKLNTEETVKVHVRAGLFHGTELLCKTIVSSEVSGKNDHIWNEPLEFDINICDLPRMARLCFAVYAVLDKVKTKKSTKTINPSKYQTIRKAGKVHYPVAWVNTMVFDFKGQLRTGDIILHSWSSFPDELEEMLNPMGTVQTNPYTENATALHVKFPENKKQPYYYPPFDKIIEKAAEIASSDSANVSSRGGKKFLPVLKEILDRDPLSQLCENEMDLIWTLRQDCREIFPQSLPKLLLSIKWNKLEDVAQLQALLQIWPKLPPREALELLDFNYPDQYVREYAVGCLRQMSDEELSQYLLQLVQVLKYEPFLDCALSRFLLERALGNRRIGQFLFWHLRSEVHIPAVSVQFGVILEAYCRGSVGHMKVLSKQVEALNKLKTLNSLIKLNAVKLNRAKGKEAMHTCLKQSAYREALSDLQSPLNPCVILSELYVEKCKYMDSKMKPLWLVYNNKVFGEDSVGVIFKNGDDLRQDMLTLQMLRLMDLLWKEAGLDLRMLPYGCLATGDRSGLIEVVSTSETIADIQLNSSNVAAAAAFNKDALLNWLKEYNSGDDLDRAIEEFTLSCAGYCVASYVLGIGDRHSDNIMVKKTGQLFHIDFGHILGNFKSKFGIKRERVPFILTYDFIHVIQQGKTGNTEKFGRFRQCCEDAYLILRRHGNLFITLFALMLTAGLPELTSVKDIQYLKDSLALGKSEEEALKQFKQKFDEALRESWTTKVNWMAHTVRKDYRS", "sequence (P27986 whole entry partner, canonical isoform)": "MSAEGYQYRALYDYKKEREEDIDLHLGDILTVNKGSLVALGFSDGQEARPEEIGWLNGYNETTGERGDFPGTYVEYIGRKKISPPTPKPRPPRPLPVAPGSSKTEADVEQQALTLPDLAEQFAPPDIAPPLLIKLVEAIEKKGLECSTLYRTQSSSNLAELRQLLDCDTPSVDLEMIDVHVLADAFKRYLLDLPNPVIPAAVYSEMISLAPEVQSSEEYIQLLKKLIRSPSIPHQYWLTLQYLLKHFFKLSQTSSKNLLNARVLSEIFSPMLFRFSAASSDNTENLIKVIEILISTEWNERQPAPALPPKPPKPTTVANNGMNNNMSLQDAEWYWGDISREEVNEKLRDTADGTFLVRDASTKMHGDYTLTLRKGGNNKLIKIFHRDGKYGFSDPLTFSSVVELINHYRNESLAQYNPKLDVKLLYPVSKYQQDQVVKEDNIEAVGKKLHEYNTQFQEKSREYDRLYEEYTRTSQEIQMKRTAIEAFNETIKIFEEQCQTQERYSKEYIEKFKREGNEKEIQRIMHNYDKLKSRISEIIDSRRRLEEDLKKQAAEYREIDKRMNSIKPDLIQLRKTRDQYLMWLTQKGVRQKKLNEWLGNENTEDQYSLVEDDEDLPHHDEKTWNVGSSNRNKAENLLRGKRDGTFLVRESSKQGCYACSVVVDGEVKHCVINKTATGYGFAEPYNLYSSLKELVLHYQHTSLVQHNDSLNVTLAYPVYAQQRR", "assay": "PI3K isoform TR-FRET enzymatic assay (PI3Kβ)", "type": "biochemical", "conditions": "2× Km ATP, 30 minutes at 25° C.", "experimental": "The compounds of formula (I) were characterized for their enzymatic activity against the PI3K isoforms. The activities were measured using a time-resolved fluorescence resonance energy transfer (TR-FRET) assay. TR-FRET monitored the formation of 3,4,5-inositol triphosphate molecule that competed with fluorescently labeled PIP3 for binding to the GRP-1 pleckstrin homology domain protein.\nClass I PI3K isoforms were expressed and purified as heterodimeric recombinant proteins. All assay reagents and buffers for the TR-FRET assay were purchased from Millipore. […] The compounds were added to the assay solution and incubated for 30 minutes at 25° C. The reactions were terminated with a final concentration of 10 mM EDTA, 10 nM labeled-PIP3, and 35 nM Europium labeled GRP-1 detector protein before reading TR-FRET on an Envision plate reader (Ex: 340 nm; Em: 615/665 nm; 100 μs delay and 500 μs read window).\nThe results were normalized based on positive (1 μM wortmanin) and negative (DMSO) controls, and the IC50 values for PI3K α, β, δ, and γ were calculated from the fit of the dose-response curves to a four-parameter equation.", "data": [{"smiles": "Cc1csc(-c2cc(N3CCOCC3)cc3c2nc(C2CC2)n3-c2ccnc3c(F)ccc(F)c23)n1", "note": "[Example 237, 4-[2-cyclopropyl-3-(5,8-difluoroquinolin-4-yl)-7-(4-methyl-1,3-thiazol-2-yl)benzimidazol-5-yl]morpholine]", "values": [{"measurement": "IC50", "result": 0.05, "unit": "µM"}]}, {"smiles": "Cc1cccc2nccc(-n3cnc4c(-c5nnc[nH]5)cc(N5CCOCC5)cc43)c12", "note": "[Example 127, 4-[3-(5-methylquinolin-4-yl)-7-(4H-1,2,4-triazol-3-yl)benzimidazol-5-yl]morpholine]", "values": [{"measurement": "IC50", "result": 0.023, "unit": "µM"}]}, {"smiles": "Cc1nc2c(-c3nccs3)cc(N3CCOCC3)cc2n1-c1ccnc2c(Cl)cccc12", "note": "[Example 244, 4-[3-(8-chloroquinolin-4-yl)-2-methyl-7-(1,3-thiazol-2-yl)benzimidazol-5-yl]morpholine]", "values": [{"measurement": "IC50", "result": 0.009, "unit": "µM"}]}, {"smiles": "Fc1ccc(Cl)c2nccc(-n3c(C4CC4)nc4c(-c5ncco5)cc(N5CCOCC5)cc43)c12", "note": "[Example 242, 4-[3-(8-chloro-5-fluoroquinolin-4-yl)-2-cyclopropyl-7-(1,3-oxazol-2-yl)benzimidazol-5-yl]morpholine]", "values": [{"measurement": "IC50", "result": 0.006, "unit": "µM"}]}, {"smiles": "Fc1cccc2c(-n3cnc4c(-c5nnc[nH]5)cc(N5CCOCC5)cc43)ccnc12", "note": "[Example 95, 4-[3-(8-fluoroquinolin-4-yl)-7-(4H-1,2,4-triazol-3-yl)benzimidazol-5-yl]morpholine]", "values": [{"measurement": "IC50", "result": 0.006, "unit": "µM"}]}, {"smiles": "Cc1nc2c(-c3cnc(Cl)[nH]3)cc(N3CCOCC3)cc2n1-c1ccnc2c(F)ccc(F)c12", "note": "(atropisomer, axis not shown) [Compound 373, 4-(4-(2-chloro-1H-imidazol-5-yl)-1-(5,8-difluoroquinolin-4-yl)-2-methyl-1H-benzo[d]imidazol-6-yl)morpholine]", "values": [{"measurement": "IC50", "result": 1, "unit": "µM"}]}, {"smiles": "CCc1nnc(-c2cc(N3CCOCC3)cc3c2nc(C)n3-c2ccnc3c(Cl)cccc23)[nH]1", "note": "[Example 137, 4-[3-(8-chloroquinolin-4-yl)-7-(5-ethyl-4H-1,2,4-triazol-3-yl)-2-methylbenzimidazol-5-yl]morpholine]", "values": [{"measurement": "IC50", "result": 0.017, "unit": "µM"}]}, {"smiles": "Cc1nc2c(-c3nnc[nH]3)cc(N3CCOCC3)cc2n1-c1ccnc2c(Cl)c(F)ccc12", "note": "[Example 39, 4-(1-(8-chloro-7-fluoroquinolin-4-yl)-2-methyl-4-(4H-1,2,4-triazol-3-yl)-1H-benzo[d]imidazol-6-yl)morpholine]", "values": [{"measurement": "IC50", "result": 0.011, "unit": "µM"}]}, {"smiles": "Cc1nc2c(-c3ccsc3)cc(N3CCOCC3)cc2n1-c1ccnc2c(Cl)cccc12", "note": "[Example 272, 4-[3-(8-chloroquinolin-4-yl)-2-methyl-7-thiophen-3-ylbenzimidazol-5-yl]morpholine]", "values": [{"measurement": "IC50", "result": 0.065, "unit": "µM"}]}, {"smiles": "CCCc1nc2c(-c3nnc[nH]3)cc(N3CCOCC3)cc2n1-c1ccnc2c(Cl)cccc12", "note": "[Compound 1, 4-(1-(8-chloroquinolin-4-yl)-2-propyl-4-(4H-1,2,4-triazol-3-yl)-1H-benzo[d]imidazol-6-yl)morpholine 2,2,2-trifluoroacetate]", "values": [{"measurement": "IC50", "result": 0.004, "unit": "µM"}]}, {"smiles": "Cc1nc2c(-c3nnc(C4CC4)[nH]3)cc(N3CCOCC3)cc2n1-c1ccnc2c(Cl)cccc12", "note": "[Example 135, 4-[3-(8-chloroquinolin-4-yl)-7-(5-cyclopropyl-4H-1,2,4-triazol-3-yl)-2-methylbenzimidazol-5-yl]morpholine]", "values": [{"measurement": "IC50", "result": 0.043, "unit": "µM"}]}, {"smiles": "Cc1nc2c(-c3nnc(N)o3)cc(N3CCOCC3)cc2n1-c1ccnc2cc(F)ccc12", "note": "[Example 163, 5-(1-(7-fluoroquinolin-4-yl)-2-methyl-6-morpholino-1H-benzo[d]imidazol-4-yl)-1,3,4-oxadiazol-2-amine]", "values": [{"measurement": "IC50", "result": 0.63, "unit": "µM"}]}, {"smiles": "Cc1nc2c(-c3cnc(Cl)[nH]3)cc(N3CCOCC3)cc2n1-c1ccnc2c(F)ccc(Cl)c12", "note": "[Example 309, 4-[3-(5-chloro-8-fluoroquinolin-4-yl)-7-(2-chloro-1H-imidazol-5-yl)-2-methylbenzimidazol-5-yl]morpholine]", "values": [{"measurement": "IC50", "result": 0.05, "unit": "µM"}]}, {"smiles": "CCc1nc2c(-c3nnc(C)[nH]3)cc(N3CCOCC3)cc2n1-c1ccnc2c(F)ccc(F)c12", "note": "[Example 152, 4-(1-(5,8-difluoroquinolin-4-yl)-2-ethyl-4-(5-methyl-4H-1,2,4-triazol-3-yl)-1H-benzo[d]imidazol-6-yl)morpholine]", "values": [{"measurement": "IC50", "result": 0.059, "unit": "µM"}]}]}
